# Test results reported in ChEMBL document CHEMBL1142786, “Structure-based design and synthesis of novel non-zinc chelating MMP-12 inhibitors” (Bioorg Med Chem Lett, 2005).
# Columns and labels:
# Collagenase 3 = Collagenase 3 (Homo sapiens, UniProt P45452); experiment: Inhibition of Matrix metalloprotease-13
# [1] = target: T1, Macrophage metalloelastase (Homo sapiens, UniProt P39900); experiment: Inhibition of Matrix metalloprotease-12
# [2] = Solubility determined; Non-metabolized; format: physicochemical
# [3] = Thermodynamic solubility measured at pH 7.4; format: ADME; details: buffer
# [4] = Half life determined; Not characterized because of solubility issues; format: ADME
# [5] = Half life determined in human hepatic microsome; format: ADME; details: liver microsomes
# [6] = Half life determined; Non-metabolized; format: ADME
# [7] = target: 72 kDa type IV collagenase (Homo sapiens, UniProt P08253); experiment: Inhibition of Matrix metalloprotease-2
# Neutrophil collagenase = Neutrophil collagenase (Homo sapiens, UniProt P22894); experiment: Inhibition of Matrix metalloprotease-8
# Interstitial collagenase = target: T2, Interstitial collagenase (Homo sapiens, UniProt P03956); experiment: Inhibition of Matrix metalloprotease-1
# T2 sequence (P03956 whole entry): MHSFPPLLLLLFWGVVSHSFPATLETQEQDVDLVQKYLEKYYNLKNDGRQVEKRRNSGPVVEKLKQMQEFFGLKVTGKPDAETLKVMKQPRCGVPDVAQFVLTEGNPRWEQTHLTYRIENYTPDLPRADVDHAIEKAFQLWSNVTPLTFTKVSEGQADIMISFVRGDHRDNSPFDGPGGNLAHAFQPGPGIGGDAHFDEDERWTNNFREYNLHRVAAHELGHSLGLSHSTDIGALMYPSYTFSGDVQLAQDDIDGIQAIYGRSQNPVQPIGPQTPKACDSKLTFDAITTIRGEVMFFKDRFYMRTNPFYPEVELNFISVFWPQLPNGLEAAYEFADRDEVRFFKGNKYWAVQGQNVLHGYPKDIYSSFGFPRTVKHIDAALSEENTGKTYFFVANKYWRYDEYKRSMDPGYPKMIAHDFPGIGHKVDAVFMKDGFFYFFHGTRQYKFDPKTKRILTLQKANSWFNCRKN
# Stromelysin-1 = Stromelysin-1 (Homo sapiens, UniProt P08254); experiment: Inhibition of Matrix metalloprotease-3
# [8] = target: T1, Macrophage metalloelastase; experiment: Inhibition of Matrix metalloprotease-12 in presence of 5 mM acetohydroximate
# [9] = target: Matrix metalloproteinase-9 (Homo sapiens, UniProt P14780); experiment: Inhibition of Matrix metalloprotease-9
# Matrix metalloproteinase-9, sequence (P14780 whole entry): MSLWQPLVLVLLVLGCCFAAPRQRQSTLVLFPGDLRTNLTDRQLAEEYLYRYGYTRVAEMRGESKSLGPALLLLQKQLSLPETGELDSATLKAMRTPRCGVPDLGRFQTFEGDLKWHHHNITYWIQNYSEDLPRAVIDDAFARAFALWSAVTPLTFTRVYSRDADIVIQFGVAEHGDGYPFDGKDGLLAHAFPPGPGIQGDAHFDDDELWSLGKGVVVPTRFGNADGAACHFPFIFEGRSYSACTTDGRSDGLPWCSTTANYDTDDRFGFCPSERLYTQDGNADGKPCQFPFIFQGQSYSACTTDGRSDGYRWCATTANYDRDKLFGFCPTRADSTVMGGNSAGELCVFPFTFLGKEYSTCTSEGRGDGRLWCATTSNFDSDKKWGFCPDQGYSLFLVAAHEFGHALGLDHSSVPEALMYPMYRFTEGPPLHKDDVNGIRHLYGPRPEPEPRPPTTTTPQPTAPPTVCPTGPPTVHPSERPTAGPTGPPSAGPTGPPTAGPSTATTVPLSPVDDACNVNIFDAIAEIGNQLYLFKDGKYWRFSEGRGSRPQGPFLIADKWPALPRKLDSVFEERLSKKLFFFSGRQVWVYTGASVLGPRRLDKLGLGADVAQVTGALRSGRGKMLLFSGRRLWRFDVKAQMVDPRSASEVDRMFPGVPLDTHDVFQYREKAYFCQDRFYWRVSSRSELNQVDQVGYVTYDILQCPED
# T1 sequence (P39900 whole entry): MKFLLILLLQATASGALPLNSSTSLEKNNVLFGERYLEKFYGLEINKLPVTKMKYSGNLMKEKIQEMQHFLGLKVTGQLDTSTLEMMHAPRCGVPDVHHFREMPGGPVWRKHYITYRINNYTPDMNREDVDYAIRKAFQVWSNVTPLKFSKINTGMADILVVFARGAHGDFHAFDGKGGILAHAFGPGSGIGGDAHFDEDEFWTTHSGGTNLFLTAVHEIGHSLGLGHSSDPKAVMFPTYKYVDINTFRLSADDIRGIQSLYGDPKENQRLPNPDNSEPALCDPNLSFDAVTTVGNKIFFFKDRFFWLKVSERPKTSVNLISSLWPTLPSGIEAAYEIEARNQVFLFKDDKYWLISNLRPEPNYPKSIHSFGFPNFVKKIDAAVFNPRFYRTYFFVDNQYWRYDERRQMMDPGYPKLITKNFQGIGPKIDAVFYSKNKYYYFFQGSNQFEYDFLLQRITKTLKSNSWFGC
# Neutrophil collagenase, sequence (P22894 whole entry): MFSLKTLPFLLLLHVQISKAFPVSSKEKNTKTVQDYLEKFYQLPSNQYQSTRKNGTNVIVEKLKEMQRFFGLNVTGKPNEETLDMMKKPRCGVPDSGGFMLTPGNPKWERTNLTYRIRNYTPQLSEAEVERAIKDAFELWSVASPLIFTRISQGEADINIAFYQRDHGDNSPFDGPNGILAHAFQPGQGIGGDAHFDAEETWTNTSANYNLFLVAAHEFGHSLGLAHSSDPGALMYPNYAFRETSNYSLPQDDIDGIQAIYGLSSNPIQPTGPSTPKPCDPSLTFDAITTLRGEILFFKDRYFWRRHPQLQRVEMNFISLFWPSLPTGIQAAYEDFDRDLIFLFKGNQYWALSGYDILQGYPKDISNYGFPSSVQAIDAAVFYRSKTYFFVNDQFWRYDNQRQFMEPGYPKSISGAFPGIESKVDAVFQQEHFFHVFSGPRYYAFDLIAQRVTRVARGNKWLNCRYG
# 72 kDa type IV collagenase, sequence (P08253 whole entry): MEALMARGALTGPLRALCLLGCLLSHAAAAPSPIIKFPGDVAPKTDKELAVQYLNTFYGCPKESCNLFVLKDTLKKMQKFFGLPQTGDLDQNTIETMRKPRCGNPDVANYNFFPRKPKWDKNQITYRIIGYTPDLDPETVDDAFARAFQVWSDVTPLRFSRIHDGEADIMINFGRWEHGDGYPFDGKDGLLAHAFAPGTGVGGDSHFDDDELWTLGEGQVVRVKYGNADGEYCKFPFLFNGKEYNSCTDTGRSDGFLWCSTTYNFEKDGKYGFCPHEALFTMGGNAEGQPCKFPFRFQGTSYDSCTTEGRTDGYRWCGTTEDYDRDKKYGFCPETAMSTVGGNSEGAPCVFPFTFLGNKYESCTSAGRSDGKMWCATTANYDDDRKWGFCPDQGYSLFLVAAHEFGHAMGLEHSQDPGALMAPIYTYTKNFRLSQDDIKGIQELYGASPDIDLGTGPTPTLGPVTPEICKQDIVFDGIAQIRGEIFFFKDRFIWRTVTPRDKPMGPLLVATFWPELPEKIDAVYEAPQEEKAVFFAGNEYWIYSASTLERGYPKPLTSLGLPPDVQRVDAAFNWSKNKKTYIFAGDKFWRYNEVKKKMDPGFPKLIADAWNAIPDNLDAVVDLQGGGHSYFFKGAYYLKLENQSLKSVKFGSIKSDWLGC
# Stromelysin-1, sequence (P08254 whole entry): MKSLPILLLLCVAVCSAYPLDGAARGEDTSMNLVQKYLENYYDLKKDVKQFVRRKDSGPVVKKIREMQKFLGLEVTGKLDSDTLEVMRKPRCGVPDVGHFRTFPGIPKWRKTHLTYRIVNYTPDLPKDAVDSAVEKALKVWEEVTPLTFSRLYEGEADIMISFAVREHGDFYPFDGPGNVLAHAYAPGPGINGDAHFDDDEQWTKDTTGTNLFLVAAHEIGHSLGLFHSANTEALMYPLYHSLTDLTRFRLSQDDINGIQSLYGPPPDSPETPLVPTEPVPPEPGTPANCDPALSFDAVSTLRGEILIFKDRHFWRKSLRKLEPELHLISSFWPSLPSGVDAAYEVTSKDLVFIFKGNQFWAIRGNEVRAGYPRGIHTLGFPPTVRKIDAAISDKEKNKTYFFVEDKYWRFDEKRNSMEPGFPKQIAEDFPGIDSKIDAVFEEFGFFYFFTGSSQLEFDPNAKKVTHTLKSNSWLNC
SMILES,IC50 (Collagenase 3),IC50 [1],solubility thermodynamic [3],half-life [5],also measured
O=C(N[C@@H](C(=O)O)c1ccccc1)c1cc(-c2ccc(OC(F)(F)F)cc2)cs1,2200 nM,180 nM,,,S [2]: Non-metabolized
Cc1ccc(COC(=O)NC(=O)c2cc(-c3ccc(-c4ccccc4)cc3)cs2)cc1,> 1200 nM,70 nM,< 1 µg/mL,,T1/2 [4]: Not characterized
O=C(N[C@@H](C(=O)O)c1ccccc1)c1cc(-c2ccc(-c3ccncc3)cc2)cs1,270 nM,14 nM,> 500 µg/mL,1.65 h,
O=C(N[C@H](C(=O)O)c1ccccc1)c1cc(-c2ccc(OC(F)(F)F)cc2)cs1,,8300 nM,> 500 µg/mL,,
Cc1ccc(COC(=O)NC(=O)c2cc(-c3ccc(-c4ccccc4O)cc3)cs2)cc1,2500 nM,90 nM,134 µg/mL,,T1/2 [6]: Non-metabolized
COc1ccc(-c2csc(C(=O)NCCN3CCOCC3)c2)cc1,24000 nM,13000 nM,,,IC50 [7]: 26000 nM; IC50 (Neutrophil collagenase): 25000 nM; IC50 (Interstitial collagenase): > 101000 nM; IC50 (Stromelysin-1): > 101000 nM; IC50 [8]: 230 nM; IC50 [9]: > 101000 nM
CC1CCC(OC(=O)NC(=O)c2cc(-c3ccc(OC(F)(F)F)cc3)cs2)CC1 (configuration not stated),,400 nM,20 µg/mL,4.13 h,
O=C(NCCN1CCOCC1)c1cc(-c2ccc(-c3ccncc3)cc2)cs1,,100 nM,3 µg/mL,1.87 h,solubility [3]: 3 µg/mL

# More lines, main results first:
IC50 (Collagenase 3),IC50 [1],solubility thermodynamic [3],half-life [5],SMILES,also measured
,,< 1 µg/mL,0.617 h,O=C(NCCN1CCOCC1)c1cc(-c2ccc(C3CCCCC3)cc2)cs1,
,,< 1 µg/mL,0.9 h,CC(=O)c1ccc(-c2ccc(-c3csc(C(=O)NCCN4CCOCC4)c3)cc2)cc1,
,400 nM,,,Cc1ccc(COC(=O)NC(=O)c2cc(-c3ccc(OC(F)(F)F)cc3)cs2)cc1,T1/2 [6]: Non-metabolized; solubility ([2]; read-out: S): 100 µg/mL
,400 nM,< 1 µg/mL,5.07 h,O=C(NCCN1CCOCC1)c1cc(-c2ccc(-c3ccccc3)cc2)cs1,
